# Like-named read-outs stand apart in the source and are kept apart here. Residues, ends and D or L forms follow the SMILES beside them.
# Assays:
# [1] = test system: Fusarium culmorum (IMI 180420); experiment: Antifungal growth inhibition microplate assay (photospectrometry); format: cell-based; details: ½ PDB; for F CULMORUM IC: Table 6 / FIG. 8: Rs-AFP1-based 9-mer split peptides
# Description: (§1) The following fungal strains were used: Alternaria brassicicola (MUCL 20297), Ascophyta pisi (MUCL 30164), Botrytis cinerea (MUCL 30158), Fusarium culmorum (IMI 180420) and Verticillium dahliae (MUCL 19210).
# (§2) Fungi were grown on six cereal agar plates at room temperature and under white fluorescent light except for F culmorum and V dahliae which were grown in the dark. The duration of the spore harvest varied between 10 and 25 days depending on the strain. Spores were collected as follows. Five to ten ml of sterile milli-Q water was poured into each dish and the surface of the agar was rubbed with a sterile spatula to obtain a suspension containing mycelium and spores. This suspension was filtered through a sterile glasswool-plugged funnel and the filtrate containing the spores was collected in a sterile polypropylene centrifuge tube. The A brassicicola spores were suspended in sterile 0.1 Tween 20 (Merk, 822184) due to their hydrophobic nature. The spore suspensions were then washed twice by centrifugation at 2,400×g for 15 minutes and resuspended in a small volume of steril milli-Q water. The spore density was determined in a counting chamber and then adjusted to 4×10^7 spores per ml. Aliquots of the spore suspension were transferred to sterile microtubes and an equal volume of sterile 50% glycerol (Merck, 4091) was added to each tube so that a final spore suspension of 2×10^7 spores per ml in 25% glycerol was obtained. After careful mixing of the stock, the spore suspension was transferred in 100 μl aliquots to sterile microtubes and stored at −80° C.
# (§3) Antifungal activity was measured by photospectrometry as described by Broekaert et al, (1990, FEMS Microbiol Lett, 69:55-60). Tests were performed by adding 20 μl of test solution and 80 μl of a fungal spore suspension (2×10^4 spores/ml) per well in a sterile flat-bottom 96-well microtiterplate. The spore suspension was prepared by diluting the stock spore suspension ([…] in 25% glycerol) 1:1000 in half-strength potato dextrose broth. A positive growth control consisting of eight wells containing 20 μl of sterile milli-Q water and 80 μl of the fungal spore suspension was included in each test. The microtiterplates were incubated (with the lid on) in an aerated place at room temperature and under conditions of darkness for all test organisms.
# (§4) After 30 minutes of incubation (when the spores are settled on the well bottom) the optical density was measured in a microplate reader (Bio Rad 3550-UV) at 595 nm. Incubation of the microtiterplates continued until the optical density of the control microculture was between 0.250 and 0.500, which took approximately 72 hours (96 hours for V dahliae). Percentage of growth inhibition (% GI) was estimated as 100 times the ratio of the corrected absorbance of the control microculture minus the corrected absorbance of the test microculture over the corrected absorbance of the control microculture at 595 nm. The corrected absorbance values equal the absorbance at 595 nm of the culture measured after 72 or 96 hours minus the absorbance at 595 nm measured after 30 minutes.
# (§5) % GI=[(Acontrol−Atest/Acontrol]×100
# (§6) where Acontrol=(A72/96h−A30min)control
# (§7) The IC50 value is defined as the concentration that gives a 50% growth inhibition after 72 or 96 hours of incubation. The minimum inhibitory concentration (MIC) corresponds to the minimum concentration that gives 100% growth inhibition after 72 or 96 hours incubation.
# [2] = test system: Ascophyta pisi (MUCL 30164); format: cell-based; details: for A PISI IC: the source numbers peptides by N-terminal amino acid
# Description: as §1, §2, §3, §4, §5, §6, §7
# [3] = Table 4 / FIG. 6: Rs-AFP2-based 12-mer split peptides, the source numbers peptides by N-terminal amino acid
# [4] = Table 4: Rs-AFP2-based 12-mer split peptides, triplicate
# [5] = Table 7 / FIG. 8: Rs-AFP1-based 12-mer split peptides, the source numbers peptides by N-terminal amino acid
# [6] = Table 7: Rs-AFP1-based 12-mer split peptides
# [7] = Table 7: Rs-AFP1-based 12-mer split peptides, ½ PDB
# [8] = the source numbers peptides by N-terminal amino acid
# [9] = Table 6: Rs-AFP1-based 9-mer split peptides, ½ PDB
# [10] = Table 3 / FIG. 6: Rs-AFP2-based 9-mer split peptides, the source numbers peptides by N-terminal amino acid
# [11] = Table 3: Rs-AFP2-based 9-mer split peptides, duplicate
# [12] = Table 6: Rs-AFP1-based 9-mer split peptides
Molecule,"IC50 [1, 3] [µg/mL]","MIC [1, 4] [µg/mL]","F CULMORUM IC50 [1, 5] [µg/mL]","F CULMORUM MIC [1, 6] [µg/mL]","A PISI IC50 [2, 7] [µg/mL]","A PISI MIC [2, 7] [µg/mL]","F CULMORUM IC [1, 8] [µg/mL]",further results
CC[C@H](C)[C@H](NC(=O)[C@H](CS)NC(=O)[C@H](CCCCN)NC(=O)[C@H](Cc1c[nH]cn1)NC(=O)[C@H](C)NC(=O)[C@@H]1CCCN1C(=O)[C@H](Cc1ccccc1)NC(=O)[C@@H](NC(=O)[C@H](Cc1ccc(O)cc1)NC(=O)[C@H](CC(N)=O)NC(=O)[C@H](CS)NC(=O)[C@H](CO)NC(C)=O)C(C)C)C(N)=O [compound 124] (Ac-SCNYVFPAHKCI-NH2),135,200,213,300,318,>400,,
CC(=O)NCC(=O)N[C@@H](CO)C(=O)N[C@@H](CS)C(=O)N[C@@H](CC(N)=O)C(=O)N[C@@H](Cc1ccc(O)cc1)C(=O)N[C@H](C(=O)N[C@@H](Cc1ccccc1)C(=O)N1CCC[C@H]1C(=O)N[C@@H](C)C(=O)N[C@@H](Cc1c[nH]cn1)C(=O)N[C@@H](CCCCN)C(=O)N[C@@H](CS)C(N)=O)C(C)C [compound 123] (Ac-GSCNYVFPAHKC-NH2),280,300,266,300,349,>400,,
CC[C@H](C)[C@H](NC(=O)[C@H](CS)NC(=O)[C@H](CCCCN)NC(=O)[C@H](Cc1c[nH]cn1)NC(C)=O)C(=O)N[C@@H](CS)C(=O)N[C@@H](Cc1ccc(O)cc1)C(=O)N[C@@H](Cc1ccccc1)C(=O)N1CCC[C@H]1C(=O)N[C@@H](CS)C(N)=O [compound 89] (Ac-HKCICYFPC-NH2),,,,,,,233,"A PISI IC [2, 9]: 70 µg/mL"
Ac-EKARHGSCNYVF-NH2 [compound 118],154,200,63,100,91,200,,
Ac-KARHGSCNYVFP-NH2 [compound 119],37,50,33,50,66,100,,
CC[C@H](C)[C@H](NC(=O)[C@H](CS)NC(=O)[C@H](CCCCN)NC(C)=O)C(=O)N[C@@H](CS)C(=O)N[C@@H](Cc1ccc(O)cc1)C(=O)N[C@@H](Cc1ccccc1)C(N)=O [compound 44] (Ac-KCICYF-NH2),,,,,,,,F CULMORUM IC50 ([1]; Table 5 / FIG. 8: Rs-AFP1-based 6-mer split peptides): 376 µg/mL; F CULMORUM MIC ([1]; Table 5: Rs-AFP1-based 6-mer split peptides): >400 tg/ml; A PISI IC50 [2]: 400 µg/mL; A PISI MIC [2]: >400 µg/mL
CC[C@H](C)[C@H](NC(=O)[C@H](CS)NC(=O)[C@H](CCCCN)NC(=O)[C@H](Cc1c[nH]cn1)NC(=O)[C@H](C)NC(=O)[C@@H]1CCCN1C(C)=O)C(=O)N[C@@H](CS)C(=O)N[C@@H](Cc1ccc(O)cc1)C(=O)N[C@@H](Cc1ccccc1)C(N)=O [compound 87] (Ac-PAHKCICYF-NH2),,,,,,,28,"IC50 [1, 10]: 39 µg/mL; MIC [1, 11]: 50 µg/mL; F CULMORUM MIC [1, 12]: 37.5 µg/mL; A PISI MIC [2, 9]: 50 µg/mL; A PISI IC [2, 9]: 31 µg/mL"
CC[C@H](C)[C@H](NC(=O)[C@H](CS)NC(=O)[C@H](CCCCN)NC(=O)[C@H](Cc1c[nH]cn1)NC(=O)[C@H](C)NC(=O)[C@@H]1CCCN1C(=O)[C@H](Cc1ccccc1)NC(=O)[C@@H](NC(C)=O)C(C)C)C(=O)N[C@@H](CS)C(=O)N[C@@H](Cc1ccc(O)cc1)C(=O)N[C@@H](Cc1ccccc1)C(=O)N1CCC[C@H]1C(N)=O [compound 128] (Ac-VFPAHKCICYFP-NH2),344,>400,320,>400,181,400,,
Ac-KARHGSCNY-NH2 [compound 76],,,,,,,169,"IC50 [1, 10]: 162 µg/mL; MIC [1, 11]: 300 µg/mL; F CULMORUM MIC [1, 12]: 250 µg/mL; A PISI MIC [2, 9]: >400 µg/mL; A PISI IC [2, 9]: 342 µg/mL"
CC[C@H](C)[C@H](NC(=O)[C@H](CS)NC(=O)[C@H](CCCCN)NC(=O)[C@H](Cc1c[nH]cn1)NC(=O)[C@H](C)NC(=O)[C@@H]1CCCN1C(=O)[C@H](Cc1ccccc1)NC(=O)[C@@H](NC(=O)[C@H](Cc1ccc(O)cc1)NC(C)=O)C(C)C)C(=O)N[C@@H](CS)C(=O)N[C@@H](Cc1ccc(O)cc1)C(=O)N[C@@H](Cc1ccccc1)C(N)=O [compound 127] (Ac-YVFPAHKCICYF-NH2),,,354,>400,302,400,,
Ac-HGSCNYVFPAHK-NH2 [compound 122],30,50,35,50,74,100,,
CC[C@H](C)[C@H](NC(=O)[C@H](CS)NC(=O)[C@H](CCCCN)NC(=O)[C@H](Cc1c[nH]cn1)NC(=O)[C@H](C)NC(=O)[C@@H]1CCCN1C(=O)[C@H](Cc1ccccc1)NC(=O)[C@@H](NC(C)=O)C(C)C)C(=O)N[C@@H](CS)C(N)=O [compound 85] (Ac-VFPAHKCIC-NH2),,,,,,,121,"IC50 [1, 10]: 121 µg/mL; MIC [1, 11]: 200 µg/mL; F CULMORUM MIC [1, 12]: 200 µg/mL; A PISI MIC [2, 9]: 400 µg/mL; A PISI IC [2, 9]: 184 µg/mL"
Ac-NYVFPAHKC-NH2 [compound 83],,,,,,,330,"IC50 [1, 10]: 175 µg/mL; MIC [1, 11]: 250 µg/mL; F CULMORUM MIC [1, 12]: 400 µg/mL"
113 (QCIRLEKARHGS; listed as Raphanus sativus) [compound 113],127,200,362,400,,,,
Ac-KNQCIRLEKARH-NH2 [compound 111],126,200,,,,,,
CC[C@H](C)[C@H](NC(=O)[C@H](CS)NC(=O)[C@H](CCC(N)=O)NC(=O)[C@H](CC(N)=O)NC(=O)[C@H](CCCCN)NC(=O)[C@H](CS)NC(=O)[C@H](C)NC(C)=O)C(=O)N[C@@H](CCCNC(=N)N)C(=O)N[C@@H](CC(C)C)C(=O)N[C@@H](CCC(=O)O)C(=O)N[C@@H](CCCCN)C(=O)N[C@@H](C)C(N)=O [compound 109] (Ac-ACKNQCIRLEKA-NH2),106,150,,,,,,
